Measured values taken from publication PMC9270327 (Communications Biology, 2022).
Where a name gives a salt, the structure may show the parent alone. Read-outs that look alike come from different tables or passages of the source.

System: SARS-CoV-2 Wuhan-Hu-1 D614G, Caco-2 cells
Format: cell-based
Details: for IC50: Caco-2 cells; for SARS-CoV-2 infection, Mean (0 nM = 100): Fig. 6b, D614G isolate
[1] = in-cell ELISA 2 days post infection

Row | Molecule | IC50 (2 days post infection) | IC50 [1] | SARS-CoV-2 infection, Mean (0 nM = 100) (compound 32 nM) | SARS-CoV-2 infection, Mean (0 nM = 100) (compound 160 nM) | SARS-CoV-2 infection, Mean (0 nM = 100) (compound 800 nM) | SARS-CoV-2 infection, Mean (0 nM = 100) (compound 4000 nM) | SARS-CoV-2 infection, Mean (0 nM = 100) (compound 20000 nM) | SARS-CoV-2 infection, Mean (0 nM = 100) (compound 100000 nM)
1 | CN(C)C(=O)COC(=O)Cc1ccc(OC(=O)c2ccc(NC(=N)N)cc2)cc1 [CM, camostat mesylate, reference compound] | 26.7 µM | 26.7 µM | 93.4834 | 88.1889 | 88.3001 | 93.3101 | 68.3858 | 1.574
2 | ace-Arg-Pro-Arg-kbt [Compound 2] | 17.1 µM | 17.1 µM | 95.739 | 98.0747 | 97.5395 | 101.461 | 23.4531 | 0.121
